Reference: ChEMBL document CHEMBL1667793, “Synthesis and DNA photocleavage by a pyridine-linked bis-acridine chromophore in the presence of copper(II): ionic strength effects” (Bioorg Med Chem Lett, 2011)
Activity calls are given as the source filed them. The calls are words filed in the database; no cut-off is given here.

Tests used:
Type in all cases: nucleic-acid assay
Nucleic Acid [1] = assay: Induction of Escherichia coli pUC19 DNA cleavage assessed as conversion of supercoiled DNA to nicked and linear form of DNA at 2 to 50 uM after 60 mins by ethidium bromide staining
Nucleic Acid [2] = assay: Induction of Escherichia coli pUC19 DNA cleavage assessed as conversion of supercoiled DNA to nicked and linear form of DNA at 10 uM irradiated for 50 mins measured after 60 mins by ethidium bromide staining
Nucleic Acid [3] = assay: Induction of Escherichia coli pUC19 DNA cleavage assessed as conversion of supercoiled DNA to nicked and linear form of DNA at 2 to 20 uM irradiated for 50 mins measured after 60 mins by ethidium bromide staining in presence of 1 mol equivalent of copper chloride
Nucleic Acid [4] = assay: Inhibition of Escherichia coli pUC19 DNA photocleavage assessed as conversion of supercoiled DNA to nicked form of DNA at 10 uM after 1 hr followed by irradiated for 60 mins by ethidium bromide staining in presence of 100 uM of sodium benzoate
Nucleic Acid [5] = assay: Inhibition of Escherichia coli pUC19 DNA photocleavage assessed as conversion of supercoiled DNA to nicked form of DNA at 10 uM after 1 hr followed by irradiated for 60 mins by ethidium bromide staining in presence of 100 uM of sodium azide
Nucleic Acid [6] = assay: Inhibition of Escherichia coli pUC19 DNA photocleavage assessed as conversion of supercoiled DNA to linear form of DNA at 10 uM after 1 hr followed by irradiated for 60 mins by ethidium bromide staining in presence of 100 uM of sodium benzoate
Nucleic Acid [7] = assay: Inhibition of Escherichia coli pUC19 DNA photocleavage assessed as conversion of supercoiled DNA to linear form of DNA at 10 uM after 1 hr followed by irradiated for 60 mins by ethidium bromide staining in presence of 100 uM of sodium azide
Nucleic Acid [8] = assay: Inhibition of Escherichia coli pUC19 DNA photocleavage at 10 uM after 1 hr followed by irradiated for 60 mins by ethidium bromide staining in presence of 100 uM of sodium benzoate
Nucleic Acid [9] = assay: Inhibition of Escherichia coli pUC19 DNA photocleavage at 10 uM after 1 hr followed by irradiated for 60 mins by ethidium bromide staining in presence of 100 uM of sodium azide
Nucleic Acid [10] = assay: Inhibition of Escherichia coli pUC19 DNA photocleavage assessed as conversion of supercoiled DNA to nicked form of DNA at 10 uM after 1 hr followed by irradiated for 60 mins by ethidium bromide staining in presence of 100 uM of sodium benzoate and 1 mol equivalent of copper chloride
Nucleic Acid [11] = assay: Inhibition of Escherichia coli pUC19 DNA photocleavage assessed as conversion of supercoiled DNA to nicked form of DNA at 10 uM after 1 hr followed by irradiated for 60 mins by ethidium bromide staining in presence of 100 uM of sodium azide and 1 mol equivalent of copper chloride
Nucleic Acid [12] = assay: Inhibition of Escherichia coli pUC19 DNA photocleavage assessed as conversion of supercoiled DNA to linear form of DNA at 10 uM after 1 hr followed by irradiated for 60 mins by ethidium bromide staining in presence of 100 uM of sodium benzoate and 1 mol equivalent of copper chloride
Nucleic Acid [13] = assay: Inhibition of Escherichia coli pUC19 DNA photocleavage assessed as conversion of supercoiled DNA to linear form of DNA at 10 uM after 1 hr followed by irradiated for 60 mins by ethidium bromide staining in presence of 100 uM of sodium azide and 1 mol equivalent of copper chloride
Nucleic Acid [14] = assay: Inhibition of Escherichia coli pUC19 DNA photocleavage at 10 uM after 1 hr followed by irradiated for 60 mins by ethidium bromide staining in presence of 100 uM of sodium benzoate and 1 mol equivalent of copper chloride
Nucleic Acid [15] = assay: Inhibition of Escherichia coli pUC19 DNA photocleavage at 10 uM after 1 hr followed by irradiated for 60 mins by ethidium bromide staining in presence of 100 uM of sodium azide and 1 mol equivalent of copper chloride
Nucleic Acid [16] = assay: Induction of Escherichia coli pUC19 DNA cleavage assessed as conversion of supercoiled DNA to nicked and linear form of DNA at 10 to 30 uM after 1 hr followed by irradiated for 60 mins by ethidium bromide staining in presence of 1 mol equivalent of copper chloride and 150 mM sodium chloride and 240 mM of potassium chloride
Nucleic Acid [17] = assay: Induction of Escherichia coli pUC19 DNA cleavage assessed as conversion of supercoiled DNA to nicked and linear form of DNA at 10 to 30 uM after 1 hr followed by irradiated for 60 mins by ethidium bromide staining in presence of 1 mol equivalent of copper chloride and 150 mM sodium chloride
Nucleic Acid [18] = assay: Induction of Escherichia coli pUC19 DNA cleavage assessed as conversion of supercoiled DNA to nicked and linear form of DNA at 10 to 30 uM after 1 hr followed by irradiated for 60 mins by ethidium bromide staining in presence of 1 mol equivalent of copper chloride and 240 mM of potassium chloride
Calf thymus DNA [19] = assay: Binding affinity to calf thymus DNA at 10 uM by UV-visible spectra analysis in presence of 1 mol equivalent of copper chloride and 260 mM of potassium chloride; details: Bos taurus
Calf thymus DNA [20] = assay: Binding affinity to calf thymus DNA at 10 uM assessed as change in melting temperature; details: Bos taurus
Calf thymus DNA [21] = assay: Binding affinity to calf thymus DNA at 10 uM assessed as change in melting temperature in presence of copper; details: Bos taurus

## Nc1ccc2cc3ccc(NCc4cccc(CNc5ccc6cc7ccc(N)cc7nc6c5)n4)cc3nc2c1
Nucleic Acid [1]
  Activity: Active
Nucleic Acid [2]
  Activity: Active
Nucleic Acid [3]
  Activity: inactive
Nucleic Acid [4]
  inhibition: -10%
Nucleic Acid [5]
  inhibition: 29%
Nucleic Acid [6]
  inhibition: 91%
Nucleic Acid [7]
  inhibition: 80%
Nucleic Acid [8]
  inhibition: 0%
Nucleic Acid [9]
  inhibition: 34%
Nucleic Acid [10]
  inhibition: -7%
Nucleic Acid [11]
  inhibition: -1%
Nucleic Acid [12]
  inhibition: 88%
Nucleic Acid [13]
  inhibition: 82%
Nucleic Acid [14]
  inhibition: 0%
Nucleic Acid [15]
  inhibition: 5%
Nucleic Acid [16]
  Activity: Active
Nucleic Acid [17]
  Activity: Active
Nucleic Acid [18]
  Activity: Active
Calf thymus DNA [19]
  Activity: Active
Calf thymus DNA [20]
  Tm: 79 °C
Calf thymus DNA [21]
  Tm: 80 °C
